Measurements reported in PubChem BioAssay AID256 (DTP/NCI, 2004).
Several values for one entry are separate records, joined by “and”; a condition that tells them apart may be missing. Equal values may be shown once. Toxic doses and inconclusive results are not listed. How the source made its calls: active means survival T/C of 150% or more; inactive means T/C below 125% in these data.

System: CD2F1 mice, L1210 leukemia ip, survival T/C
Test: NCI In Vivo Anticancer Drug Screen. Data for tumor model L1210 Leukemia (intraperitoneal) in CD2F1 (CDF1) mice
Conditions: higher = longer survival
Method in brief: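 Compound-dosed mice with transplantable tumor versus matched vehicle controls; endpoint ratio T/C reported.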

[1] = endpoint: mean survival time, dose: 100.0 mg/kg/injection, schedule: Q04DX003 (ip), vehicle: saline with Tween-80
[2] = endpoint: mean survival time, dose: 200.0 mg/kg/injection, schedule: Q04DX003 (ip), vehicle: saline with Tween-80
[3] = endpoint: mean survival time, dose: 100.0 mg/kg/injection, schedule: Q01DX009 (ip), vehicle: saline with Tween-80
[4] = endpoint: mean survival time, dose: 200.0 mg/kg/injection, schedule: Q01DX009 (ip), vehicle: saline with Tween-80
[5] = endpoint: mean survival time, dose: 400.0 mg/kg/injection, schedule: Q01DX009 (ip), vehicle: saline with Tween-80

Measured: T/C

Cc1ccc(CNc2ccccc2)cc1
inactive: endpoint: mean survival time, dose: 12.5 mg/kg/injection, schedule: Q01DX009 (ip), vehicle: other 103 % of control | endpoint: mean survival time, dose: 25.0 mg/kg/injection, schedule: Q01DX009 (ip), vehicle: other 108 % of control | endpoint: mean survival time, dose: 50.0 mg/kg/injection, schedule: Q01DX009 (ip), vehicle: other 96 % of control | endpoint: mean survival time, dose: 100.0 mg/kg/injection, schedule: Q04DX003 (ip), vehicle: other 97 % of control | endpoint: mean survival time, dose: 200.0 mg/kg/injection, schedule: Q04DX003 (ip), vehicle: other 89 % of control and 102 % of control | endpoint: mean survival time, dose: 400.0 mg/kg/injection, schedule: Q04DX003 (ip), vehicle: other 88 % of control and 96 % of control

CCCN(CCC)S(=O)(=O)c1ccc(NC(=O)OC(c2ccccc2)c2ccccc2)cc1
inactive: endpoint: mean survival time, dose: 100.0 mg/kg/injection, schedule: Q01DX001 (ip), vehicle: saline 104 % of control | endpoint: mean survival time, dose: 200.0 mg/kg/injection, schedule: Q01DX001 (ip), vehicle: saline 95 % of control | endpoint: mean survival time, dose: 400.0 mg/kg/injection, schedule: Q01DX001 (ip), vehicle: saline 93 % of control

CCCNC(=O)Oc1ccc(Br)cc1Br
inactive: endpoint: mean survival time, dose: 50.0 mg/kg/injection, schedule: Q01DX009 (ip), vehicle: Klucel (hydroxypropylcellulose) (HPC) 108 % of control | endpoint: mean survival time, dose: 100.0 mg/kg/injection, schedule: Q01DX009 (ip), vehicle: Klucel (hydroxypropylcellulose) (HPC) 97 % of control | endpoint: mean survival time, dose: 200.0 mg/kg/injection, schedule: Q01DX009 (ip), vehicle: Klucel (hydroxypropylcellulose) (HPC) 94 % of control

O=C(O)C1CCOC1=O (stereo not drawn)
inactive: endpoint: mean survival time, dose: 50.0 mg/kg/injection, schedule: Q04DX002 (ip), vehicle: saline 107 % of control | endpoint: mean survival time, dose: 100.0 mg/kg/injection, schedule: Q04DX002 (ip), vehicle: saline 98 % of control | endpoint: mean survival time, dose: 200.0 mg/kg/injection, schedule: Q04DX002 (ip), vehicle: saline 98 % of control

O=c1oc(-c2ccccc2Cl)nc2cc(Cl)ccc12
inactive: [1] 101 % of control | [2] 94 % of control

Clc1cccc(Cl)c1C(Nc1nncs1)Nc1nncs1
active: endpoint: median survival time, dose: 144.0 mg/kg/injection, schedule: Q01DX005 (ip), vehicle: saline with Tween-80 151 % of control | endpoint: median survival time, dose: 240.0 mg/kg/injection, schedule: Q01DX005 (ip), vehicle: saline with Tween-80 171 % of control | endpoint: median survival time, dose: 400.0 mg/kg/injection, schedule: Q01DX005 (ip), vehicle: saline with Tween-80 192 % of control and 223 % of control
inactive: endpoint: median survival time, dose: 25.0 mg/kg/injection, schedule: Q01DX005 (ip), vehicle: saline with Tween-80 113 % of control

CCC(CO)Nc1nc2c(c(=O)n(C)c(=O)n2C)n1C (stereo not drawn)
inactive: endpoint: mean survival time, dose: 12.5 mg/kg/injection, schedule: Q01DX005 (ip), vehicle: distilled water + Tween-80 101 % of control | endpoint: mean survival time, dose: 25.0 mg/kg/injection, schedule: Q01DX005 (ip), vehicle: distilled water + Tween-80 100 % of control | endpoint: mean survival time, dose: 50.0 mg/kg/injection, schedule: Q01DX005 (ip), vehicle: distilled water + Tween-80 101 % of control | endpoint: mean survival time, dose: 100.0 mg/kg/injection, schedule: Q01DX005 (ip), vehicle: distilled water + Tween-80 94 % of control | endpoint: mean survival time, dose: 200.0 mg/kg/injection, schedule: Q01DX005 (ip), vehicle: distilled water + Tween-80 101 % of control

CC1CCC(NC(=O)NCCF)CC1 (stereo not drawn)
inactive: endpoint: mean survival time, dose: 75.0 mg/kg/injection, schedule: Q01DX001 (ip), vehicle: other 100 % of control | endpoint: mean survival time, dose: 150.0 mg/kg/injection, schedule: Q01DX001 (ip), vehicle: other 115 % of control

Cc1ccc(S(=O)(=O)N(O)S(=O)(=O)c2ccc(C)cc2)cc1
inactive: endpoint: mean survival time, dose: 100.0 mg/kg/injection, schedule: Q01DX001 (ip), vehicle: saline with Tween-80 101 % of control | [3] 94 % of control | endpoint: mean survival time, dose: 200.0 mg/kg/injection, schedule: Q01DX001 (ip), vehicle: saline with Tween-80 94 % of control | [4] 92 % of control | endpoint: mean survival time, dose: 400.0 mg/kg/injection, schedule: Q01DX001 (ip), vehicle: saline with Tween-80 100 % of control | [5] 94 % of control

CNC(=S)C#N
inactive: endpoint: median survival time, dose: 6.25 mg/kg/injection, schedule: Q01DX005 (ip), vehicle: saline + Tween-80 + alcohol 100 % of control | endpoint: median survival time, dose: 12.5 mg/kg/injection, schedule: Q01DX005 (ip), vehicle: saline + Tween-80 + alcohol 97 % of control | endpoint: median survival time, dose: 25.0 mg/kg/injection, schedule: Q01DX005 (ip), vehicle: saline + Tween-80 + alcohol 98 % of control and 102 % of control | endpoint: median survival time, dose: 50.0 mg/kg/injection, schedule: Q01DX005 (ip), vehicle: saline + Tween-80 + alcohol 87 % of control and 112 % of control

O=C(O)CC1CCC(CC(=O)O)CC1 (stereo not drawn)
inactive: [3] 101 % of control | [4] 104 % of control | [5] 101 % of control

N=C(N)SSC(=N)N
inactive: endpoint: mean survival time, dose: 50.0 mg/kg/injection, schedule: Q01DX009 (ip), vehicle: saline 96 % of control | endpoint: mean survival time, dose: 100.0 mg/kg/injection, schedule: Q01DX009 (ip), vehicle: saline 100 % of control

Cc1cc(Cc2ccc(N=C=O)c(C)c2)ccc1N=C=O
inactive: [1] 103 % of control | [4] 89 % of control | [2] 111 % of control | [5] 89 % of control | endpoint: mean survival time, dose: 400.0 mg/kg/injection, schedule: Q04DX003 (ip), vehicle: saline with Tween-80 106 % of control
